Molecules are shown by their SMILES.

The subject of series [1] is colon carcinoma cell CT-26. The series is described as follows: Cellular uptake test under various NaHS concentrations (gamma counter). The series is classed as cell-based. The note with it: CT-26 cells. As to the method: Cellular drug uptake is an important prognostic factor in the diagnosis of diseases. Therefore, to examine cellular uptake of the ^64Cu-labeled complex compounds according to the present disclosure, experiments for measuring changes in the cellular uptake under various concentrations of hydrogen sulfide were performed.
A colon carcinoma cell CT-26 was seeded in each plate at a density of 5×10^6, and then 10 μCi-300 μCi of ^64Cu-labeled complex compound of Examples 1, 7 or 9 according to the present disclosure was treated thereto, followed by incubation for 10 minutes. The cells were washed with PBS, and then 0 μM, 1 μM, or 50 μM of NaHS solution was added thereto, followed by incubation for 5 minutes. Thereafter, the cells were washed with PBS, and then cells were removed from the plate by adding trypsin and EDTA, followed by centrifugation. Supernatants were discarded and radiation of remaining cells was measured by using a gamma counter.

In another series the test system is Paw inflammation model. The series is classed as in vivo, Balb/c or ICR mice. As to the method: (1) Paw Pain Inflammation Model
A small amount of CFA (complete Freund's adjuvant) or formalin was injected into only one paw (right) of the hind paws of Balb/c or ICR mice to establish inflammation models. 1 day after injection of the inflammation inducer, the mice were used in imaging or other in vivo experiments.
It is a known fact that inflamed sites show high concentrations of hydrogen sulfide.
Nuclear medicine imaging was measured by using an Inveon PET/CT system of Siemens Healthcare, and optical imaging was measured by using IVIS spectrum CT equipment. Cherenkov radiation emitted from ^64Cu was measured by using a highly sensitive CCD (charge-coupled device) camera.
Imaging was measured for 1 minute to 5 minutes, and a radiation dose was about 50 μCi to 2000 μCi, and photographs were variously taken as needed, such as immediately after first injection, at 1 hour, 4 hours, and 24 hours later.

Series [2] in a line: Hydrogen sulfide selectivity test: decomplexation by Na2S2O5. Type of series: physicochemical. The note with it: 100 μM or (1 mM), 37° C. for 15 minutes. The procedure:
(§1) In addition to hydrogen sulfide, many different anions, radicals, etc. exist in the body. Therefore, to examine selective reactivity of the ^64Cu-labeled complex compound according to the present disclosure for sulfide ions, the following experiment was performed.
(§2) About 45 μCi-55 μCi of the ^64Cu-labeled complex compound (250 μL of triple distilled water) was mixed with 100 μM of various anion solutions (250 μL of triple distilled water) including biothiol, and stirred at 37° C. for 15 minutes.
(§3) Formation of copper sulfide (^64CuS) was quantified by using a radio-TLC scanner.
(§4) Various biothiol or salt solutions were prepared by dissolving the compounds in triple distilled water.
(§5) In Table, concentrations of all biothiols and other competitive materials are 100 μM. Further, specific concentrations of biothiols, anions, and oxidants used in Table are as follows: [L-Cys (1 mM); L-Hcys (10 mM); GSH (10 mM); DL-dithiothretitol (DTT, 100 μM); L-ascorbic acid (L-AsA, 10 mM); 2-mercaptoethanol (2-ME, 10 mM); NaCl (10 mm); KI (1 mM); Na2S2O3 (1 mM); Na2S2O5 (1 mM); NaOAc (1 mM); H2O2 ([…]); NaClO4 (100 μM); NaHCO3 (100 μM); NaNO2 ([…]); NaN3 (100 μM); ATB 337 (100 μM); diallyl trisulphide (100 μM)].

Series [3] is described as follows: Hydrogen sulfide selectivity test: decomplexation by Kl. Type of series: physicochemical. The note with it: 100 μM or KI (1 mM), 37° C. for 15 minutes. The procedure: as §1, §2, §3, §4, §5
Series [4] can be described thus: Test of hydrogen sulfide detection sensitivity (% decomplexation with NaHS, radio-TLC). The series is classed as physicochemical. The conditions noted are these: 37° C. for 15 minutes. As to the method:
To measure hydrogen sulfide detection sensitivity of the ^64Cu-labeled complex compound according to the present disclosure, the following experiment was performed.
About 45 μCi-55 μCi of ^64Cu-labeled complex compound (250 μL of triple distilled water) was mixed with various concentrations of NaHS solution (250 µL of triple distilled water), and stirred at 37° C. for 15 minutes (a total volume used in the reaction was equally 500 μL). After completion of the reaction, the resulting products were strongly stirred to mix appropriately.
Formation of copper sulfide (^64CuS) was confirmed by quantification of % decomplexation by using a radio-TLC scanner, and results are shown in the following Tables 2 and 3.

A short description of series [5]: Hydrogen sulfide selectivity test: decomplexation by ATB 337. The conditions noted are these: ATB 337 (100 μM); 37° C. for 15 minutes. The series is classed as physicochemical. As to the method: as §1, §2, §3, §4, §5
The nature of series [6]: Hydrogen sulfide selectivity test: decomplexation by ME. Type of series: physicochemical. The note with it: 2-mercaptoethanol; 100 μM or (2-ME, 10 mM); 37° C. for 15 minutes. The procedure:
as §1, §2, §3, §4, §5

The nature of series [7]: Hydrogen sulfide selectivity test: decomplexation by NaNO2. The series is classed as physicochemical. The note with it: NaNO2 (100 µM); 37° C. for 15 minutes. The procedure:
as §1, §2, §3, §4, §5

A short description of series [8]: Hydrogen sulfide selectivity test: decomplexation by NaCl. The series is classed as physicochemical. The note with it: 100 μM or NaCl (10 mm), 37° C. for 15 minutes. The procedure: as §1, §2, §3, §4, §5
Series [9] can be described thus: Hydrogen sulfide selectivity test: decomplexation by NaHCO3. Type of series: physicochemical. The conditions noted are these: NaHCO3 (100 μM); 37° C. for 15 minutes. The procedure:
as §1, §2, §3, §4, §5

Series [10] is described as follows: Hydrogen sulfide selectivity test: decomplexation by DTT. Type of series: physicochemical. The conditions noted are these: DL-dithiothretitol (DTT, 100 μM); 37° C. for 15 minutes. The procedure: as §1, §2, §3, §4, §5
The nature of series [11]: Hydrogen sulfide selectivity test: decomplexation by DAT (diallyl trisulphide). The series is classed as physicochemical. The conditions noted are these: DAT = diallyl trisulphide (100 μM); 37° C. for 15 minutes. The procedure: as §1, §2, §3, §4, §5
A short description of series [12]: Test of hydrogen sulfide detection over time (^64CuS formation, radio-TLC). The series is classed as physicochemical. Details: unit not given here. The note with it: 100 μM NaHS, 37° C. The procedure: To examine reactivity of the ^64Cu-labeled complex compound according to the present disclosure over time, the following experiment was performed.
A detailed experimental method is as follows.
About 45 μCi-50 μCi of ^64Cu-labeled complex compound (250 μL of triple distilled water) was mixed with 100 μM of NaHS solution ([…] of triple distilled water), and stirred at 37° C. for 15 minutes. Formation of copper sulfide (^64CuS) was quantified by using a radio-TLC scanner.

Series [13] can be described thus: Hydrogen sulfide selectivity test: decomplexation by Hcys. The series is classed as physicochemical. The conditions noted are these: 100 μM or L-Hcys (10 mM), 37° C. for 15 minutes. As to the method: as §1, §2, §3, §4, §5
A short description of series [14]: Hydrogen sulfide selectivity test: decomplexation by NaOAc. The series is classed as physicochemical. The conditions noted are these: 100 μM or (1 mM), 37° C. for 15 minutes. The procedure: as §1, §2, §3, §4, §5
A short description of series [15]: Hydrogen sulfide selectivity test: decomplexation by NaN3. Type of series: physicochemical. The conditions noted are these: NaN3 (100 μM); 37° C. for 15 minutes. As to the method:
as §1, §2, §3, §4, §5

Series [16] is described as follows: Hydrogen sulfide selectivity test: decomplexation by Na2S2O3. Type of series: physicochemical. The conditions noted are these: 100 μM or (1 mM), 37° C. for 15 minutes. The procedure: as §1, §2, §3, §4, §5
Series [17] can be described thus: Hydrogen sulfide selectivity test: decomplexation by H2O2. Type of series: physicochemical. The note with it: H2O2 (100 µM); 37° C. for 15 minutes. As to the method: as §1, §2, §3, §4, §5
Series [18] is described as follows: Hydrogen sulfide selectivity test: decomplexation by GSH. The series is classed as physicochemical. The note with it: 100 μM or GSH (10 mM), 37° C. for 15 minutes. The procedure:
as §1, §2, §3, §4, §5

A short description of series [19]: Test of hydrogen sulfide selectivity (overall statements). Type of series: physicochemical. As to the method: as §1, §2, §3, §4, §5
Series [20] in a line: Hydrogen sulfide selectivity test: decomplexation by NaClO4. The series is classed as physicochemical. The note with it: NaClO4 (100 μM); 37° C. for 15 minutes. The procedure:
as §1, §2, §3, §4, §5

Series [21] is described as follows: Hydrogen sulfide selectivity test: decomplexation by Cys. The series is classed as physicochemical. The note with it: 100 μM or L-Cys (1 mM), 37° C. for 15 minutes. As to the method:
as §1, §2, §3, §4, §5

A short description of series [22]: Hydrogen sulfide selectivity test: decomplexation by L-AsA. Type of series: physicochemical. The conditions noted are these: L-ascorbic acid; 100 μM or (L-AsA, 10 mM); 37° C. for 15 minutes. The procedure:
as §1, §2, §3, §4, §5

A short description of series [23]: Retention/excretion after injection into sites on the backs of rats (optical imaging). The conditions noted are these: about 0.48 mCi injected into sites on the backs of rats. The series is classed as in vivo. The procedure: Next, at the beginning of the second experiment, about 0.48 mCi of ^64Cu(II) ion, ^64CuS, ^64Cu-labeled complex compound according to Example 1, and ^64Cu-labeled complex compound according to Example 16 were injected into four sites on the backs of the same rats, respectively. Immediately, optical images were taken and shown in a lower left image of FIG. 4. A photograph taken after 4 hours was shown in a lower right image of FIG. 4.

With `CC1=NC(C)CNC(C)(C)CC(C)=NC(C)CNC(C)(C)C1.[64Cu+2]` (stereo not shown) [Example 7], the entries for the “Uptake (radiation of remaining cells, gamma counter)” value in [1] (NaHS Concentration 0 μM), in series [1] (NaHS Concentration 1 μM) and in series [1] (NaHS Concentration 50 μM) were 20000, 21000 and 23000, respectively. Besides, the “uptake in inflamed paw versus opposite paw” value in the series with Paw inflammation model (optical and nuclear medicine imaging performed 2 hours later) was “higher uptakes”.
As to `C1C[N]2CCC[N]3CCC[N](C1)[64Cu]23` [Example 21], the “Decomplexation [%]” value in series [2] amounted to 4 ± 2%; in series [3], 0.3%; in [5] it was 6 ± 2%; in series [6], 2 ± 2%; in [7], 0.5%; in series [8], 0.4 ± 0.2%. The “Decomplexation [%]” value in [9] was determined as 0.9%; in [10], 25%; in series [11], 49 ± 2%; in series [13], 30 ± 5%; in series [14], 1%; in series [15], 0.5%. In addition, the “Decomplexation [%]” value in [16] is on record as 3 ± 1%; in series [17], 3%; in [18], 33%; in [20], 2 ± 1%; in series [21], 9 ± 3%; in series [22], 4 ± 2%. Besides, the “% decomplexation” value worked out at 0% in series [4] (NaHS 0 μM); 0% in series [4] (NaHS 1 μM); 6.2% in [4] (NaHS 10 μM); 10% in [4] (NaHS 15 μM); 58% in series [4] (NaHS 20 μM); 63% in [4] (NaHS 50 μM). Besides, the “% decomplexation” value in series [4] (NaHS 100 μM) came out at 100%. In addition, the “Formation of copper sulfide (^64CuS) over time” value in [12] (10 sec) is 52; in series [12] (30 sec), 72; in series [12] (60 sec), 100; in [12] (5 min), 100; in series [12] (10 min), 100; in [12] (15 min), 100. In addition, the “selective reactivity with hydrogen sulfide versus biothiol compounds or anions, in words” value in series [19] is “did not selectively react with hydrogen sulfide”. In addition, the “selective uptake in inflamed sites” value with Paw inflammation model (optical imaging and nuclear medicine imaging) was “selective uptake”.
With `[Cu+2]` [^64Cu(II) ion, reference compound], the “retention time relative to ^64CuS” value in series [23] is reported as “about half of ^64CuS”. Also, the “selective reactivity with hydrogen sulfide versus biothiol compounds or anions, in words” value in series [19] is reported as “reacted with various biothiol compounds or anions”.
For `[Cu+2].[S-2]` [^64CuS, copper sulfide (^64CuS)], the “excretion from / retention in the body, in words” value in [23] (images immediately and after 4 hours) is reported as “remains for a long time in the body”.

Source of the values: patent US10583206B2, “Radioactive probe for detecting hydrogen sulfide” (KYUNGPOOK NATIONAL UNIVERSITY INDUSTRY-ACADEMIC COOPERATION …, priority 2015, dated 2020).
